Measurements from US20210379062A1, “The use of a H3R inverse agonist for the treatment of excessive daytime sleepiness associated with parkinson's disease (PD)” (Novartis AG, priority 2018, published 2021).

Test: First-in-human SAD/MAD study: safety, tolerability, night sleep duration, formulation effect
Type: in vivo
Experimental: An open-label, adaptive design study was performed in healthy volunteers to characterize regional brain H3 receptor occupancy following single dose of Compound (I) by using positron emission tomography (PET) with the radioligand [^11C]MK-8278 (Van Laere, K. J. et al, Journal of Nuclear Medicine, 2014, 55: 65-72). The primary objective of this study was to evaluate the plasma concentration of Compound (I) leading to 50% occupancy of H3 receptors in the brain (EC50). A total of 6 subjects were enrolled into the study and were scanned in three cohorts of two subjects each. Prior to dosing with Compound (I), each subject underwent a baseline PET scan to assess binding of [^11C]MK-8278 to H3R in the absence of Compound (I). Subjects subsequently received single oral doses of Compound (I) and then underwent two post-dose PET scans. Subjects of cohort 1 received a single oral dose of 300 mg of Compound (I), corresponding to the single dose maximum tolerated dose (MTD) determined from the Phase I study after single oral dose of Compound (I). These subjects underwent two post-dose PET scans, at 3 hours and 27 hours after dosing. The doses and scan timings for the subsequent cohorts were selected based on interim data analyses following the completion of the preceding cohort(s). Subjects of cohorts 2 and 3 received a single oral dose of 10 mg and 0.3 mg, respectively. Compound (I) was administered as capsules in cohorts 1 and 2, whereas cohort 3 received Compound (I) as an oral solution. […] The first post-dose PET scan for cohorts 2 and 3 was acquired at 3 hours and the second one at 27 hours and 8 hours after dosing, respectively.
PK data (drug concentration over time) from Part 1 and Part 2 of the Phase I study were used in the development of the model: • 1) Part 1 is the Single Ascending Dose part; 8 different cohorts were used, with each cohort composed of 6 active subjects and 2 placebo subjects. The dose amounts used in the 8 cohorts were 0.3, 1, 3, 10, 30, 100, 300 and 800 mg. Dosing was performed at time equal to 0 hours. […]

Cn1nc(N2CCC(OC(=O)N3CCN(C4CCC4)CC3)CC2)ccc1=O [Compound (I), 1-(1-methyl-6-oxo-1,6-dihydropyridazin-3-yl)piperidin-4-yl 4-cyclobutylpiperazine-1-carboxylate]
highest tolerated repeated dose (healthy volunteer study, repeated dose): 50 mg | difference in PK, capsule vs oral solution (in vivo, po): no clinically relevant difference | single dose maximum tolerated dose (MTD) (single oral dose, Phase I study): 300 mg
